PubChem BioAssay AID1259411 (Chemical Carcinogenesis Research Information System (CCRIS), 2018)
Active and inactive are the calls of the source. How the calls were made is not given here.

System: rodent carcinogenicity bioassays, tumor incidence
Assay: CCRIS carcinogenicity studies
Outline: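 NCI-built, expert-reviewed records of carcinogenicity and related test outcomes (mutagenicity, tumor promotion/inhibition) compiled from published and report sources, historical span 1985-2011, not updated.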

[1] = Species: RAT, Route: ORAL, Tumor Site: Type of Lesion: LIVER

**Q.** With `O[C@H]1C=Cc2nc3c(ccc4ccccc43)cc2[C@@H]1O` as the compound, how does the carcinogen call (Species: MOUSE, Strain/Sex: SWISS/FEMALE, Route: INTRAPERITONEAL, Dose: 0, 1.05 UMOL GIVEN AS 150 NMOL IN 5 µL DMSO WITHIN 24 HR OF BIRTH, 300 NMOL IN 10 µL DMSO ON D 8 OF LIFE, AND 600 NMOL I, Tumor Site: Type of Lesion: LUNG: ADENOMA) read?
**A.** active; positive

**Q.** What about the carcinogen call (Species: MOUSE, Strain/Sex: SWISS/MALE, Route: INTRAPERITONEAL, Dose: 0, 1.05 UMOL GIVEN AS 150 NMOL IN 5 µL DMSO WITHIN 24 HR OF BIRTH, 300 NMOL IN 10 µL DMSO ON D 8 OF LIFE, AND 600 NMOL I, Tumor Site: Type of Lesion: LUNG: ADENOMA) of the same compound?
**A.** active; positive

**Q.** Which carcinogen call [1] does the source give for `Nc1nc2ncc(CNc3ccc(C(=O)N(N=O)[C@@H](CCC(=O)O)C(=O)O)cc3)nc2c(=O)[nH]1` here?
**A.** active; positive

**Q.** How did the carcinogen call [1] turn out when `Cc1cc(Cc2ccc(N)c(C)c2)ccc1N` was run?
**A.** active; positive

**Q.** Which results are given for `Cc1cc2ccccc2c2ccc3c(c12)C=C[C@@H](O)[C@@H]3O`?
**A.** carcinogen call (Species: MOUSE, Strain/Sex: ICR/FEMALE, Route: INTRAPERITONEAL, Dose: 8 NMOL/5 µL DMSO ON DAY 1, 16 NMOL/10 µL ON DAY 8, AND 32 NMOL/20 µL ON DAY 15 OF AGE (STUDY DURATION: 35 WK), Tumor Site: Type of Lesion: LUNG: TUMORS): active; positive; carcinogen call (Species: MOUSE, Strain/Sex: ICR/MALE, Route: INTRAPERITONEAL, Dose: 8 NMOL/5 µL DMSO ON DAY 1, 16 NMOL/10 µL ON DAY 8, AND 32 NMOL/20 µL ON DAY 15 OF AGE (STUDY DURATION: 35 WK), Tumor Site: Type of Lesion: LUNG: TUMORS, LIVER: TUMORS): active; positive

**Q.** `COc1cc(-c2ccc(N)c(OC)c2)ccc1N` was tested. Which carcinogen call (Species: HAMSTER, Route: ORAL, Tumor Site: Type of Lesion: FORESTOMACH) did it give?
**A.** active; positive

**Q.** And the carcinogen call (Species: MOUSE, Strain/Sex: BALB/FEMALE, Route: ORAL, Dose: 0, 20, 40, 80, 160, 315, 630 PPM IN DRINKING WATER (STUDY DURATION: 112 WK), Dose: 0, 20, 40, 80, 160, 315, 630 PPM IN DRINKING WATER (STUDY DURATION: 112 WK))?
**A.** inactive; negative

**Q.** What about the carcinogen call (Species: MOUSE, Strain/Sex: BALB/MALE, Route: ORAL, Dose: 0, 20, 40, 80, 160, 315, 630 PPM IN DRINKING WATER (STUDY DURATION: 112 WK), Dose: 0, 20, 40, 80, 160, 315, 630 PPM IN DRINKING WATER (STUDY DURATION: 112 WK)) of the same compound?
**A.** inactive; negative

**Q.** What about the carcinogen call (Species: RAT, Route: ORAL, Tumor Site: Type of Lesion: EAR (ZYMBAL GLAND), URINARY BLADDER, INTESTINES, INTEGUMENTARY SYSTEM (SKIN), Tumor Site: Type of Lesion: EAR (ZYMBAL GLAND), URINARY BLADDER, INTESTINES, INTEGUMENTARY SYSTEM (SKIN)) of the same compound?
**A.** active; positive

**Q.** And the carcinogen call (Species: RAT, Strain/Sex: F344/FEMALE, Route: ORAL, Dose: 0, 80, 170, 330 PPM IN DRINKING WATER FOR 21 MO ( STUDY DURATION: 93 WK), Dose: 0, 80, 170, 330 PPM IN DRINKING WATER FOR 21 MO ( STUDY DURATION: 93 WK), Tumor Site: Type of Lesion: CLITORAL GLAND: ADENOMA OR CARCINOMA, LARGE INTESTINE: ADENOMATOUS POLYP OR ADENOCARCINOMA, LIVER: NEOPLASTIC NODULE OR, Tumor Site: Type of Lesion: CLITORAL GLAND: ADENOMA OR CARCINOMA, LARGE INTESTINE: ADENOMATOUS POLYP OR ADENOCARCINOMA, LIVER: NEOPLASTIC NODULE OR)?
**A.** active; positive

**Q.** What about the carcinogen call (Species: RAT, Strain/Sex: F344/FEMALE, Route: ORAL, Dose: 0, 80, 170, 330 PPM IN DRINKING WATER FOR 21 MO (STUDY DURATION: 21 MO), Dose: 0, 80, 170, 330 PPM IN DRINKING WATER FOR 21 MO (STUDY DURATION: 21 MO), Tumor Site: Type of Lesion: ZYMBAL GLAND: ADENOMA, CARCINOMA, CLITORAL GLAND: ADENOMA, CARCINOMA, LARGE INTESTINE: ADENOMATOUS POLYP OR ADENOCARCINO, Tumor Site: Type of Lesion: ZYMBAL GLAND: ADENOMA, CARCINOMA, CLITORAL GLAND: ADENOMA, CARCINOMA, LARGE INTESTINE: ADENOMATOUS POLYP OR ADENOCARCINO) of the same compound?
**A.** active; positive

**Q.** What about the carcinogen call (Species: RAT, Strain/Sex: F344/MALE, Route: ORAL, Dose: 0, 80, 170, 330 PPM IN DRINKING WATER FOR 21 MO (STUDY DURATION: 21 MO), Dose: 0, 80, 170, 330 PPM IN DRINKING WATER FOR 21 MO (STUDY DURATION: 21 MO), Tumor Site: Type of Lesion: ZYMBAL GLAND: ADENOMA, CARCINOMA, PREPUTIAL GLAND: CARCINOMA, SKIN: BASAL CELL ADENOMA, BASAL CELL CARCINOMA, SQUAMOUS C, Tumor Site: Type of Lesion: ZYMBAL GLAND: ADENOMA, CARCINOMA, PREPUTIAL GLAND: CARCINOMA, SKIN: BASAL CELL ADENOMA, BASAL CELL CARCINOMA, SQUAMOUS C) of the same compound?
**A.** active; positive

**Q.** What about the carcinogen call (Species: RAT, Strain/Sex: F344/MALE, Route: ORAL, Dose: 0, 80, 170, 330 PPM IN DRINKING WATER FOR 21 MO (STUDY DURATION: 93 WK), Dose: 0, 80, 170, 330 PPM IN DRINKING WATER FOR 21 MO (STUDY DURATION: 93 WK), Tumor Site: Type of Lesion: BRAIN: MALIGNANT ASTROCYTOMA, PREPUTIAL GLAND: CARCINOMA, ADENOMA OR CARCINOMA, LARGE INTESTINE: ADENOMATOUS POLYP OR AD, Tumor Site: Type of Lesion: BRAIN: MALIGNANT ASTROCYTOMA, PREPUTIAL GLAND: CARCINOMA, ADENOMA OR CARCINOMA, LARGE INTESTINE: ADENOMATOUS POLYP OR AD) of the same compound?
**A.** active; positive
